As a reminder, the Kd is the free concentration of one partner at which half of the binding sites on the other are occupied at equilibrium, for simple one-to-one binding. A low value points to higher affinity.

Experiment [1] concerns human IgG (polyclonal antirhamnose antibodies). In words: BLI monitoring of covalent reaction with human IgG (Figure 4B). It counts as binding. To be noted: 10 μM cARM, 230 μM human IgG, up to 25 h. The text has this: (§1) The design of rhamnose-SO2F-cARM was again supported by in-silico docking and predicted to preorganize electrophilic SO2F proximal to lysine 104 and serine 53 of the anti-23F heavy chain as well as tyrosine 32 of the light chain (Figure S3). To evaluate the capacity of rhamnose-SO2F-cARMs to specifically label polyclonal antirhamnose antibodies, a tool cARM with a biotin TBD was synthesized (compound 12, Figure 4A, Scheme S5). As an orthogonal kinetics assay to fluorescent gels, tool compound 12 labeling kinetics was first evaluated using an in-house BLI assay and compared to acyl imidazole cARM and ARM analogs. […] Solutions were immediately loaded onto streptavidin probes (Figure 4B, Figure S8). In this assay, rhamnose competition blocks noncovalent antirhamnose recruitment, thus the signal amplitude is directly proportional to the covalently labeled antibody product.
(§2) Figure 4 Selectivity and kinetic analysis of optimized Rha-SO2F-cARMs A. Chemical structures of tool compounds used in this study. B. cARM 12 (10 μM) was incubated with human IgG or BSA (230 μM) then diluted 8× with 100 mM competitor rhamnose spiked kinetics buffer and loaded onto streptavidin probes in BLI. The association plateau was plotted against time to yield the % labeled vs time covalent labeling curve C. Kinetic fluorescence SDS-PAGE assay similar to that in Figure 2D. […]

For the next experiment, the target named is T1, BSA (Bos taurus, UniProt P02769).
T1 construct: purchased Sigma Aldrich A9576-50ML
In words: BLI monitoring of covalent reaction, BSA control. To be noted: 10 μM cARM, 230 μM BSA in lieu of IgG. It counts as binding.
Source text: as §1, §2

For experiment [2], the system named is anti-23F antibody. Kind of experiment: Mass spectrometry study of anti-23F labelling. It counts as binding, human. To be noted: 10 µM cARM, 2.7 µM anti-23F, 45 hours. Here is the method:
To further confirm selectivity, an MS study was conducted to determine the site of labeling (Figures S10 and S11). […] No other labeling site was detected on the light chain; however, the lability of the SO2F-serine/tyrosine linkage to MS sample preparation protocols likely limited complete labeling site coverage. […] Due to the low labeling efficiency of rhamnose-AI-cARM, no labeling site could be identified. […] Determining the selectivity for antirhamnose antibodies in the presence of off-target cell surface proteins will be the focus of future in vivo studies.
Mass Spectrometry Study – Anti-23F Labelling
Anti-23F (2.7 µM) was incubated with 10 µM of Biotin-AI-cAR M 4 or Biotin-SO2F-cAR M 12, or PBS (antibody only) for 45 hours before MS analysis. Analysis was completed by Bioinformatics Solutions
Inc. Briefly, for intact protein analysis each sample was treated with PNGase F to remove glycans followed by LC-MS analysis. To determine site of labelling, each sample was digested with tryspin, chymostrypsin, and pepsin then analyzed by LC-MS/MS on a timsTOF Pro. Peptide spectra were mapped to a known antibody sequence (anti -23F antibody, Creative Biolabs - PABX-173). No labelling was identified with acyl imidazole containing cARM 4. […]
approxima tely 30% labelling post MS protocol (Figure S11)
Figure S10. Sample analysis of peptide mapping of anti-23F heavy chain. Modification with cARM 12 is […]
(1 picture or pasted object on this page, not shown here)

Experiment [3] concerns the target anti-23F antibody. Kind of experiment: Kinetic SDS-PAGE fluorescence labelling kinetics. The format is binding, human. To be noted: rhamnose and antirhamnose antibody; approximated from KI. The procedure: Figure 2 Capacity of Rha-cARMs to specifically covalently engage monoclonal anti-23F and serum anti-rhamnose. A. Chemical structures of the molecules investigated. B. Assessment of covalent vs noncovalent (cARM/ARM) engagement of human serum antirhamnose antibody via an ELISA assay. Each ARM/cARM (2 μM) was incubated with 2% human serum for 48 h and subsequently incubated directly on a streptavidin ELISA plate. Recruitment was evaluated by the addition of anti-IgG or anti-IgM HRP-conjugated secondary antibody with subsequent chromogenic substrate addition. “Comp” represents the addition of competitor rhamnose (500 mM) during 48 h of incubation. […] D. Kinetic SDS-PAGE fluorescence imaging experiment to determine Rha-AI-cARM/anti-23F antibody labeling kinetics using A647-cARM (8). cARM 8 (2–100 μM) was incubated with anti-23F antibody (2 μM) for up to 4 h. A representative fluorescence gel image is included corresponding to compound 8 (50 μM) incubated with either anti-23F antibody or isotype human IgG. Densitometry analysis with ImageJ was used to quantify relative band intensities. […] The error is calculated by alternative fits of initial rates data (all within the linear labeling range). […]
Figure 4 Selectivity and kinetic analysis of optimized Rha-SO2F-cARMs A. Chemical structures of tool compounds used in this study. […] Kinetic fluorescence SDS-PAGE assay similar to that in Figure 2D. […]

SMILES strings stand for the structures. Where only a bound is given, the exact number is not on record here.

As to `C[C@@H]1O[C@@H](OCCNC(=O)C(CCCCNC(=O)OCCOCCOCCOCCOCCOCCOCCOCCNC(=O)CCCC[C@@H]2SC[C@@H]3NC(=O)N[C@@H]32)NC(=O)c2cccc(S(=O)(=O)F)c2)[C@H](O)[C@H](O)[C@H]1O` (some centres unmarked) [compound 12], the “reaction time to plateau of labeled antibody signal” value in experiment [1] is recorded as not above 10 h. Also, the “loading/labeling with BSA” value on BSA is reported as “minimal loading/labeling”. For the same compound, in the experiment with anti-23F antibody [2], the “site of labelling (LC-MS/MS peptide mapping)” value was “only lysine 104 of antibody heavy chain”. The “labelling by intact MS” value in the experiment with anti-23F antibody [2] (post MS protocol) is approximately 30%.
For `C[C@H](O)[C@H](O)[C@@H](O)[C@@H](O)C=O` [rhamnose, L-rhamnose], the Kd at anti-23F antibody [3] is approximately 15 µM.
